{"source": "patent US20250066807A1", "about": "“CYP72A219 GENES CONFERRING HERBICIDE TOLERANCE” (COLORADO STATE UNIVERSITY RESEARCH FOUNDATION, priority 2021, published 2025)", "key": {"[1]": {"test_system": "CYP72A219 (a), CYP72A219 (b), CYP72A219 (c) and CYP81E genes", "parameters": "species or system Amaranthus palmeri", "conditions": "in vivo"}, "[2]": {"test_system": "CYP72A219 gene from chromosome 4 (MAKER-25717; SEQ ID NO: 1)", "experiment": "tembotrione metabolism in yeast expressing CYP72A219 (a)", "format": "in vitro ADME, Amaranthus palmeri", "conditions": "CYP72A219 SEQ ID NO: 1 vector; 150 μL of 1000 μM tembotrione, 24 h, 30 C; FIG. 3C", "protocol": "(§1) A functional validation of the candidate genes was conducted in a yeast system. In brief, the yeast lines WAT11 and WAT21 express the plant cytochrome P450 reductase genes ATR1 and ATR2, respectively, and have the endogenous yeast cytochrome P450 reductase gene knocked out. The sequences of the three CYP72A219 genes and the CYP81E gene were codon-optimized for expression in yeast and synthesized by Genewiz in vector pUC57. The genes were cloned into yeast expression vector pYES2 with a galactose inducible promoter, a uracil synthesis gene, and an ampicillin resistance gene. The vectors were first transformed into E. coli and selected on ampicillin, followed by sequencing to confirm the correct insertion of the P450 gene sequence. Plasmid was extracted from transformed colonies for transformation into yeast lines WAT11 and WAT21 using a LiAc protocol and plated on glucose-containing media lacking uracil to select for transformed cells. The empty pYES2 vector was included as a negative control, and a vector containing the Nsf1 gene from corn was included as a positive control known to metabolize the HPPD-inhibiting herbicides mesotrione and tembotrione. […] The incubation solution was then centrifuged, and the supernatant was analyzed using LC/MS-MS to measure parent tembotrione and hydroxy tembotrione metabolites. […]"}, "CYP81E": {"test_system": "CYP81E", "parameters": "species or system Amaranthus palmeri", "conditions": "in vivo", "protocol": "(§2) Transcript abundance was measured in the 11 resistant survey populations for genes CYP72A219 (a), CYP81E, and a CYP not implicated in herbicide resistance (FIG. 4B-D). Known sensitive populations HPPD S and HPPD S 12021 were included as references, as was known resistant population HPPD R 12001, the population previously characterized for increased expression of CYP72A219 (a) and CYP81E. Relative transcript abundance was quantified using qRT-PCR on cDNA synthesized from RNA extracted from individuals before and 6 h after tembotrione treatment, using normalization genes as previously described."}, "[3]": {"test_system": "a CYP not implicated in herbicide resistance", "parameters": "species or system Amaranthus palmeri", "conditions": "in vivo", "protocol": "as §2"}, "CYP72A219 (a)": {"test_system": "CYP72A219 (a)", "parameters": "species or system Amaranthus palmeri", "conditions": "in vivo", "protocol": "as §2"}, "[4]": {"test_system": "CYP81E gene (SEQ ID NO: 9)", "experiment": "tembotrione metabolism in yeast expressing CYP81E", "format": "in vitro ADME, Amaranthus palmeri", "conditions": "CYP81E SEQ ID NO: 9 vector; 150 μL of 1000 μM tembotrione, 24 h, 30 C; FIG. 3F", "protocol": "as §1"}, "[5]": {"test_system": "CYP81E and CYP72A219 genes", "parameters": "species or system Amaranthus palmeri", "conditions": "in vivo"}, "[6]": {"test_system": "CYP72A219 gene from chromosome 16 (SEQ ID NO: 7)", "experiment": "tembotrione metabolism in yeast expressing CYP72A219 (c)", "format": "in vitro ADME, Amaranthus palmeri", "conditions": "SEQ ID NO: 7 vector; 150 μL of 1000 μM tembotrione, 24 h, 30 C; FIG. 3D-E", "protocol": "as §1"}, "[7]": {"test_system": "variant allele of this CYP72A219 gene (SEQ ID NO: 3)", "experiment": "tembotrione metabolism in yeast expressing variant allele of CYP72A219 (a)", "format": "in vitro ADME, Amaranthus palmeri", "conditions": "variant allele SEQ ID NO: 3 vector; 150 μL of 1000 μM tembotrione, 24 h, 30 C", "protocol": "as §1"}, "Palmer amaranth": {"test_system": "Palmer amaranth", "experiment": "tembotrione dose response (plant survival) of Palmer amaranth survey populations", "format": "in vivo, Amaranthus palmeri", "conditions": "eleven survey populations; FIG. 4A", "protocol": "A survey of Palmer amaranth in the US was conducted to identify additional populations resistant to the HPPD inhibiting herbicide tembotrione. A tembotrione dose response was conducted to compare the response of the survey populations to a known sensitive population. The population USA 12001 (the population used for all previous work to identify CYP450 genes) was used as a known resistant reference."}, "[8]": {"test_system": "yeast lines WAT11 and WAT21", "experiment": "tembotrione metabolism in yeast with empty pYES2 vector (negative control)", "format": "in vitro ADME", "conditions": "150 μL of 1000 μM tembotrione, 24 h, 30 C, FIG. 3A", "protocol": "as §1"}, "[9]": {"test_system": "Palmer amaranth (Amaranthus palmeri)", "conditions": "in vivo; cited from earlier work"}, "[10]": {"test_system": "second CYP72A219 gene from chromosome 4 (SEQ ID NO: 5)", "experiment": "tembotrione metabolism in yeast expressing CYP72A219 (b)", "format": "in vitro ADME, Amaranthus palmeri", "conditions": "SEQ ID NO: 5 vector; 150 μL of 1000 μM tembotrione, 24 h, 30 C; FIG. 3D-E", "protocol": "as §1"}}, "note": "Entries after “also recorded” stand apart in the source; their conditions may differ."}
{"molecule": "CS(=O)(=O)c1ccc(C(=O)C2C(=O)CCCC2=O)c(Cl)c1COCC(F)(F)F", "note": "[tembotrione, 2-[2-chloro-4-(methylsulfonyl)-3-[(2,2,2,-tri-fluoroethoxy)methyl]benzoyl]-1,3-cyclo-hexanedione]", "values": [{"measurement": "expression of all four cytochrome P450 genes following tembotrione treatment", "setting": "[1]", "result": "induced"}, {"measurement": "formation of hydroxy-tembotrione metabolite", "setting": "[2]", "result": "showed formation of the hydroxy-tembotrione metabolite; also recorded: produced the same hydroxy-tembotrione metabolite as produced in planta"}, {"measurement": "CYP81E expression constitutively or after tembotrione treatment", "setting": "CYP81E", "result": "No resistant populations from the survey had increased expression of CYP81E"}, {"measurement": "expression of CYP unrelated to herbicide resistance before or after tembotrione treatment", "setting": "[3]", "result": "had not increased expression in any populations"}, {"measurement": "CYP72A219 (a) expression following tembotrione treatment", "setting": "CYP72A219 (a)", "result": "increased CYP72A219 (a) expression"}, {"measurement": "formation of hydroxy-tembotrione", "setting": "[4]", "result": "did not show formation of hydroxy-tembotrione"}, {"measurement": "expression of both genes after treatment with tembotrione (qRT-PCR)", "setting": "[5]", "result": "high expression of both genes"}, {"measurement": "formation of hydroxy-tembotrione", "setting": "[6]", "result": "did not show formation of hydroxy-tembotrione"}, {"measurement": "formation of hydroxy-tembotrione metabolite", "setting": "[7]", "result": "also showed formation of the hydroxy-tembotrione metabolite"}, {"measurement": "LD50 (dose of tembotrione required to cause 50% mortality in the population) relative to reference sensitive population", "setting": "Palmer amaranth", "result": "significantly higher LD50"}, {"measurement": "parent tembotrione and hydroxy tembotrione metabolites in supernatant (LC/MS-MS)", "setting": "[8]", "result": "only intact tembotrione and no metabolites; also recorded: did not detoxify tembotrione"}, {"measurement": "detoxification to 4-hydroxy tembotrione metabolite followed by glycosylation", "setting": "[9]", "result": "rapidly detoxify"}, {"measurement": "formation of 4-hydroxy tembotrione metabolites in NES", "setting": "[9]", "result": "at a slower rate than in NER"}, {"measurement": "rate of hydroxylation, NER compared with NES", "setting": "[9]", "result": "more rapidly in NER"}, {"measurement": "formation of hydroxy-tembotrione", "setting": "[10]", "result": "did not show formation of hydroxy-tembotrione"}]}
